{"source": "patent US20120288883A1", "about": "“PROBE REAGENT FOR MEASUREMENT OF PROTEOLYTIC ACTIVITY” (RIKEN, priority 2010, published 2012)", "data": [{"tested_on": "ubiquitin-proteasome system", "experiment": "Screening for degradation-terminating peptide: FRET fluorescence imaging of probe reagents expressed in HeLa cells", "assay_type": "cell-based", "conditions": "CyPet/YPet probe with Geminin (1/110) degron", "from_the_text": "In order to develop a probe reagent of interest, p105 was screened for a peptide sequence capable of terminating degradation. CyPet as a fluorescent protein I, YPet as a fluorescent protein II, and Geminin as a degron protein were used to prepare an experimental probe reagent (FIG. 2). The fluorescent protein CyPet is derived from CFP and has an excitation wavelength peak of 435 nm and a fluorescence wavelength peak of 477 nm. The fluorescent protein YPet is derived from YFP and has an excitation wavelength peak of 517 nm and a fluorescence wavelength peak of 530 nm. This pair is known to efficiently cause FRET with CyPet as a donor and YPet as an acceptor. The protein Geminin is a factor controlling the progression of cell cycle and has the function of inhibiting the licensing of DNA replication (Cell 1998; 93 (11): 1043-1053; and Am. J. Pathol. 2002; 161 (1): 267-273). Its abundance is strictly controlled during cell cycle so that its expression level increases in the S/G2/M phases and this protein disappears due to the promoted degradation by the ubiquitin-proteasome system in the G1 phase. A region of N-terminal amino acids 1-110 (Geminin (1/110)) containing a moiety necessary for the degradation of the Geminin molecule was selected from the structure of Geminin (e.g., NM_015895 (human, SEQ ID NOs: 18 and 19), NM_020567 (mouse)) and used in this experiment.\nThe respective cDNAs of these molecules were amplified by PCR and ligated by insertion to each restriction enzyme site in the multicloning site of a cloning vector pBluescript II SK(+) (Stratagene) to prepare gene DNA of the probe reagent. A region of amino acids 366-440 in human-derived p105 (SEQ ID NOs: 16 and 17) was screened for a peptide sequence for terminating degradation. This region contains GRR and processing point.\nThe prepared gene DNA of the probe reagent was then excised from the pBlueScript vector with restriction enzymes, and this fragment was inserted into the multicloning site of an expression vector CSII-EF-MCS to prepare a vector for expression in cultured cells.\nHeLa cells were cultured in a Dulbecco's modified Eagle's medium containing 10% fetal bovine serum in a 35 mmφ glass-bottomed dish. The prepared vector plasmid was mixed with a transfection reagent FuGENE (Roche Applied Science) and added to the medium. The HeLa cells were cultured in a CO2 incubator for 2 days so that the cells expressed the probe reagent and experienced cell cycle.\nThis is because the intramolecular nuclear localization signal of the Geminin protein, which functions in the nucleus, allowed the probe reagent to be selectively incorporated into the nucleus. The amount of Geminin changes periodically depending on the promoted or suppressed degradation by the ubiquitin-proteasome system in accordance with cell cycle. If the degradation of the probe reagent accompanying the degradation of Geminin is terminated by the degradation-terminating peptide, CyPet accumulates in the cell during every cell cycle without being degraded and thus reduces an YPet/CyPet fluorescence intensity ratio serving as an index value for FRET at the time of CyPet excitation. After the degradation of Geminin, the probe reagent lacks the nuclear localization signal. As a result, the remaining CyPet molecule also becomes distributed in the cytoplasm. The cells were fluorescently imaged from these viewpoints and screened for a peptide capable of terminating degradation.\nAn inverted microscope (IX70, Olympus Corp.) was used in cell observation. Fluorescence images were obtained using a 3-CCD cooled color camera (ORCA-3CCD, Hamamatsu Photonics K.K.). This camera can simultaneously capture images in three wavelength (red, green, and blue) regions and merge them to form observable color images. Also, it can individually measure the brightness of the image in each wavelength region. After excitation with a 440 nm band-pass filter, the fluorescence images of the cells were obtained through a 460 nm long-pass filter. […]", "values": [{"substance": "p105 (376/420): probe reagent containing human p105 amino acids 376-420 (SEQ ID NO: 9) (GGGSGAGAGGGGMFGSGGGGGGTGSTGPGYSFPHYGFPTYGGITF; listed as Homo sapiens)", "ability of the peptide to terminate degradation of the probe reagent": "capable of efficiently terminating protein degradation"}, {"substance": "p105 (392/440): probe reagent containing human p105 amino acids 392-440 (SEQ ID NO: 5) (GGGGGGTGSTGPGYSFPHYGFPTYGGITFHPGTTKSNAGMKHGTMDTES; listed as Homo sapiens)", "ability of the peptide to terminate degradation of the probe reagent": "capable of efficiently terminating protein degradation"}, {"substance": "p105 (376/409): probe reagent containing human p105 amino acids 376-409 (SEQ ID NO: 11) (GGGSGAGAGGGGMFGSGGGGGGTGSTGPGYSFPH; listed as Homo sapiens)", "ability of the peptide to terminate degradation of the probe reagent": "capable of efficiently terminating protein degradation"}, {"substance": "p105 (382/440): probe reagent containing human p105 amino acids 382-440 (SEQ ID NO: 3) (GAGGGGMFGSGGGGGGTGSTGPGYSFPHYGFPTYGGITFHPGTTKSNAGMKHGTMDTES; listed as Homo sapiens)", "ability of the peptide to terminate degradation of the probe reagent": "capable of efficiently terminating protein degradation"}, {"substance": "p105 (376/434): probe reagent containing human p105 amino acids 376-434 (SEQ ID NO: 7) (GGGSGAGAGGGGMFGSGGGGGGTGSTGPGYSFPHYGFPTYGGITFHPGTTKSNAGMKHG; listed as Homo sapiens)", "ability of the peptide to terminate degradation of the probe reagent": "capable of efficiently terminating protein degradation"}, {"substance": "GRR: glycine-rich region, amino acids 376-404 of human p105, tested alone as degradation-terminating peptide", "ability of the peptide to terminate degradation of the probe reagent": "failed to terminate the degradation"}]}]}
